According to patent US20230233569A1 (Revolution Medicines, Inc., priority 2020, published 2023):
“And” between values parts separate entries of the source, which are not always exact repeats. Identical values can stand only once.

Legend:
Assay in all cases: Disruption of BRAF RBD interaction with Ras (FRET / MOA assay, with Cyclophilin A)
Type in all cases: biochemical
[1] = target: KRAS G12C (Homo sapiens, UniProt P01116+P62937, G12C); conditions: KRAS G12C; read-out: KRAS G12C FRET data IC50
Summary of the method: (§1)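 Cyclophilin A-dependent ternary complex assay. K-Ras loaded with nucleotide; BRAF RBD as effector. Cpd top 30 μM final, 3 h at 25 °C. Readout: TR-FRET ratio, IC50.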

[2] = target: KRAS G12D (Homo sapiens, UniProt P01116+P62937, G12D); conditions: read-out: KRAS G12D FRET data, IC50
Sequence of KRAS G12D (P01116 1-169 isoform P01116-2 G12D limits assumed): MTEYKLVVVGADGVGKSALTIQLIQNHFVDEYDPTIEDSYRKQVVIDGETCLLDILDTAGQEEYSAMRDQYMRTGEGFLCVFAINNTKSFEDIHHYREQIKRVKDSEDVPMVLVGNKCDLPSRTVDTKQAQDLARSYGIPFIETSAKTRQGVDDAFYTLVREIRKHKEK
Sequence of KRAS G12D (P62937 whole entry): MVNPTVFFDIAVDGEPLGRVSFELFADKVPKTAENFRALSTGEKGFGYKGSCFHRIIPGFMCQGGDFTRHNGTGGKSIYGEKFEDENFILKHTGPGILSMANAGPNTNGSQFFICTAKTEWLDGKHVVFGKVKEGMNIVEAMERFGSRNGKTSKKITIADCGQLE
Summary of the method: as §1

[3] = target: KRAS G12S (Homo sapiens, UniProt P01116+P62937, G12S); conditions: read-out: KRAS G12S FRET data, IC50
Sequence of KRAS G12S (P01116 1-169 isoform P01116-2 G12S limits assumed): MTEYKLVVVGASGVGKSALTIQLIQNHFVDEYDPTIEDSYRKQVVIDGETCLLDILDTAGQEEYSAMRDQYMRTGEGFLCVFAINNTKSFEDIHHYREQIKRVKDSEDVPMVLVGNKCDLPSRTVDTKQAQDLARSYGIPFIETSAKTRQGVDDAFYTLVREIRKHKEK
Sequence of KRAS G12S (P62937 whole entry): as the sequence (P62937 whole entry) above
Summary of the method: as §1

[4] = target: KRAS G12V (Homo sapiens, UniProt P01116+P62937, G12V); conditions: KRAS G12V; read-out: KRAS G12V FRET data IC50
Sequence of KRAS G12V (P01116 1-169 isoform P01116-2 G12V limits assumed): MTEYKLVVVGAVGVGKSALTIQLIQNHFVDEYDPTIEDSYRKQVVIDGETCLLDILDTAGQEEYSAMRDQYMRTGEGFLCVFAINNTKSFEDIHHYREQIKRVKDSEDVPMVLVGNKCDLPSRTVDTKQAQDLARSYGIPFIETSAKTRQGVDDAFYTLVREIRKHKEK
Sequence of KRAS G12V (P62937 whole entry): as the sequence (P62937 whole entry) above
Summary of the method: as §1

[5] = target: KRAS G13C (Homo sapiens, UniProt P01116+P62937, G13C); conditions: KRAS G13C; read-out: KRAS G13C FRET data IC50
Sequence of KRAS G13C (P01116 1-169 isoform P01116-2 G13C): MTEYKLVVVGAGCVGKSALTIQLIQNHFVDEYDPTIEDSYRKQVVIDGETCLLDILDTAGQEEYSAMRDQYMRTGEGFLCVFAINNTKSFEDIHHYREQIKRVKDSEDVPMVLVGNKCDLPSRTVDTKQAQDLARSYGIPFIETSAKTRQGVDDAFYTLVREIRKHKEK
Sequence of KRAS G13C (P62937 whole entry): as the sequence (P62937 whole entry) above
Summary of the method: as §1

[6] = target: KRAS WT (Homo sapiens, UniProt P01116+P62937); conditions: KRAS WT; read-out: KRAS WT FRET data IC50
Sequence of KRAS WT (P01116 1-169 isoform P01116-2 limits assumed): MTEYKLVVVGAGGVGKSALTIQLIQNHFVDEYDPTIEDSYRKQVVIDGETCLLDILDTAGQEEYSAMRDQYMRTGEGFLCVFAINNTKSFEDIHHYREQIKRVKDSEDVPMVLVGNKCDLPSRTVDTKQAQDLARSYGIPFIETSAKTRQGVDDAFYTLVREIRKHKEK
Sequence of KRAS WT (P62937 whole entry): as the sequence (P62937 whole entry) above
Summary of the method: as §1

[7] = target: KRAS Q61H (Homo sapiens, UniProt P01116+P62937, Q61H); conditions: KRAS Q61H; read-out: KRAS Q61H FRET data IC50
Sequence of KRAS Q61H (P01116 1-169 isoform P01116-2 Q61H limits assumed): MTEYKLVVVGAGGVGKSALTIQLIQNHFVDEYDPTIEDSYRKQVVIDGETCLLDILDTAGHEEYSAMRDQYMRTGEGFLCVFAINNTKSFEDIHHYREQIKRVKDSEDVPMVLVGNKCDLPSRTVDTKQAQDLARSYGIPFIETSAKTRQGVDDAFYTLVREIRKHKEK
Sequence of KRAS Q61H (P62937 whole entry, the tested form may be a part): as the sequence (P62937 whole entry) above
Description: (§2) Disruption of B-Raf Ras-Binding Domain (BRAF^RBD) Interaction with K-Ras by Compounds of the Invention (Also Called a FRET Assay or an MOA Assay)
(§3) Note—The following protocol describes a procedure for monitoring disruption of K-Ras G12C (GMP-PNP) binding to BRAF^RBD by a compound of the invention. This protocol may also be executed substituting other Ras proteins or nucleotides.
(§4) The purpose of this biochemical assay was to measure the ability of test compounds to facilitate ternary complex formation between a nucleotide-loaded K-Ras isoform and Cyclophilin A; the resulting ternary complex disrupts binding to a BRAF^RBD construct, inhibiting K-Ras signaling through a RAF effector. Data is reported as IC50 values.
(§5) In assay buffer containing 25 mM HEPES pH 7.3, 0.002% Tween20, 0.1% BSA, 100 mM NaCl and 5 mM MgCl2, tagless Cyclophilin A, His6-K-Ras-GMPPNP, and GST-BRAF^RBD were combined in a 384-well assay plate at final concentrations of 25 μM, 12.5 nM and 50 nM, respectively. Compound was present in plate wells as a 10-point 3-fold dilution series starting at a final concentration of 30 μM. After incubation at 25° C. for 3 hours, a mixture of Anti-His Eu-W1024 and anti-GST allophycocyanin was then added to assay sample wells at final concentrations of 10 nM and 50 nM, respectively, and the reaction incubated for an additional 1.5 hours. […] Compounds that facilitate disruption of a K-Ras:RAF complex were identified as those eliciting a decrease in the TR-FRET ratio relative to DMSO control wells.
as §4, with “BRAF^RBDD” for “BRAF^RBD”

[8] = target: NRAS Q61K (Homo sapiens, UniProt P01111+P62937, Q61K); conditions: NRAS Q61K; read-out: NRAS Q61K FRET data IC50
Sequence of NRAS Q61K (P01111 whole entry Q61K): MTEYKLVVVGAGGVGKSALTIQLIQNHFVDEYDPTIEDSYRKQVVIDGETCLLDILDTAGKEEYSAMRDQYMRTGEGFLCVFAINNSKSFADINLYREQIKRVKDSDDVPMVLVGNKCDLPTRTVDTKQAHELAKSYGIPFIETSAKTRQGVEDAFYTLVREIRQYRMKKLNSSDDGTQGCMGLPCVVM
Sequence of NRAS Q61K (P62937 whole entry): as the sequence (P62937 whole entry) above
Description: as §2, §3, §4, §5
as §4, with “BRAF^RBDD” for “BRAF^RBD”

[9] = target: NRAS Q61R (Homo sapiens, UniProt P01111+P62937, Q61R); conditions: NRAS Q61R; read-out: NRAS Q61R FRET data IC50
Sequence of NRAS Q61R (P01111 whole entry Q61R): as the sequence (P01111 whole entry Q61K) above, with K61R counted along it
Sequence of NRAS Q61R (P62937 whole entry): as the sequence (P62937 whole entry) above
Description: as §2, §3, §4, §5
as §4, with “BRAF^RBDD” for “BRAF^RBD”

Sequence of KRAS G12C (P01116 1-169 isoform P01116-2 G12C): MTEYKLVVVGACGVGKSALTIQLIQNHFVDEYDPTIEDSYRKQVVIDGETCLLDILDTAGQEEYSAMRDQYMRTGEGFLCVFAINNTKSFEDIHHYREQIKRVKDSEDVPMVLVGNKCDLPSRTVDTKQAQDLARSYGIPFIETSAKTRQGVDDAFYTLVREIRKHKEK
Sequence of KRAS G12C (P62937 whole entry): as the sequence (P62937 whole entry) above

| Compound | IC50 [1] [nM] | IC50 [2] [nM] | IC50 [3] | IC50 [4] [nM] | IC50 [5] [nM] | IC50 [6] [nM] | IC50 [7] [nM] | IC50 [8] [nM] | IC50 [9] [nM] |
| --- | --- | --- | --- | --- | --- | --- | --- | --- | --- |
| C=CC(=O)N1CC[C@H](C(=O)N(C)[C@H](C(=O)N[C@H]2Cc3cc(O)cc(c3)-c3ccc4c(c3)c(c(-c3ccccc3N3CCOCC3)n4CC)CC(C)(C)COC(=O)[C@@H]3CCCN(N3)C2=O)C(C)C)C1 [Example A026] | 100 to 1000 | > 10000 | > 10000 nM | > 10000 | > 10000 | > 10000 | 1000 to 10000 | > 10000 | > 10000 |
| C=CC(=O)N1CC[C@H](C(=O)N(C)[C@H](C(=O)N[C@H]2Cc3cc(O)cc(c3)-c3ccc4c(c3)c(c(-c3cccnc3N3CC(OC)C3)n4CC)CC(C)(C)COC(=O)[C@@H]3CCCN(N3)C2=O)C(C)C)C1 [Example A060] | 100 to 1000 | > 10000 | 1000 to 10000 nM | 1000 to 10000 | 1000 to 10000 | > 10000 | 1000 to 10000 | 1000 to 10000 | > 10000 |
| C=CC(=O)N1CC[C@H](C(=O)N(C)[C@H](C(=O)N[C@H]2Cc3cc(O)cc(c3)-c3ccc4c(c3)c(c(-c3cccnc3)n4CC)CC(C)(C)COC(=O)[C@@H]3CCCN(N3)C2=O)C(C)C)C1 [Example A045] | 100 to 1000 | > 10000 | 1000 to 10000 nM | 1000 to 10000 | 1000 to 10000 | 1000 to 10000 | 100 to 1000 | 1000 to 10000 | > 10000 |
| C=CC(=O)N1CC[C@H](C(=O)N(C)[C@H](C(=O)N[C@H]2Cc3cc(O)cc(c3)-c3ccc4c(c3)c(c(-c3c(F)cccc3CCOC)n4CC)CC(C)(C)COC(=O)[C@@H]3CCCN(N3)C2=O)C(C)C)C1 [Example A025] | 100 to 1000 | > 10000 | 1000 to 10000 nM | 1000 to 10000 | 1000 to 10000 | 1000 to 10000 | 1000 to 10000 | 1000 to 10000 | > 10000 |
| C=CC(=O)N1CC[C@H](C(=O)N(C)[C@H](C(=O)N[C@H]2Cc3cc(O)cc(c3)-c3ccc4c(c3)c(c(-c3nccnc3COC)n4CC)CC(C)(C)COC(=O)[C@@H]3CCCN(N3)C2=O)C(C)C)C1 [Example A085] | 1000 to 10000 | > 10000 | > 10000 nM | > 10000 | > 10000 | > 10000 | 1000 to 10000 | > 10000 | > 10000 |
| C=CC(=O)N1CC[C@H](C(=O)N(C)[C@H](C(=O)N[C@H]2Cc3cc(O)cc(c3)-c3ccc4c(c3)c(c(-c3c(CCOC)cccc3OC)n4CC)CC(C)(C)COC(=O)[C@@H]3CCCN(N3)C2=O)C(C)C)C1 [Example A080] | 100 to 1000 | > 10000 | > 10000 nM | 1000 to 10000 | > 10000 | > 10000 | 1000 to 10000 | 1000 to 10000 | > 10000 |
| C=CC(=O)N1CC[C@H](C(=O)N(C)[C@H](C(=O)N[C@H]2Cc3cc(O)cc(c3)-c3cc(F)c4c(c3)c(c(-c3ccccc3CCOC)n4CC)CC(C)(C)COC(=O)[C@@H]3CCCN(N3)C2=O)C(C)C)C1 [Example A053] | 100 to 1000 | > 10000 | 1000 to 10000 nM and > 10000 nM | > 10000 | > 10000 | > 10000 | 1000 to 10000 | > 10000 | > 10000 |
| C=CC(=O)N1CC[C@H](C(=O)N(C)[C@H](C(=O)N[C@H]2Cc3cc(O)cc(c3)-c3ccc4c(c3)c(c(-c3cncnc3)n4CC)CC(C)(C)COC(=O)[C@@H]3CCCN(N3)C2=O)C(C)C)C1 [Example A061] | 100 to 1000 | > 10000 | 1000 to 10000 nM | 1000 to 10000 | 1000 to 10000 | 1000 to 10000 | 1000 to 10000 | 1000 to 10000 | > 10000 |

Next, values leading:

| IC50 [1] [nM] | IC50 [2] [nM] | IC50 [3] | IC50 [4] [nM] | IC50 [5] [nM] | IC50 [6] [nM] | IC50 [7] [nM] | IC50 [8] [nM] | IC50 [9] [nM] | Compound |
| --- | --- | --- | --- | --- | --- | --- | --- | --- | --- |
| 10 to 100 | 1000 to 10000 | 100 to 1000 nM | 100 to 1000 | 100 to 1000 | 1000 to 10000 | 100 to 1000 | 100 to 1000 | 1000 to 10000 | C=CC(=O)N1CC[C@H](C(=O)N(C)[C@H](C(=O)N[C@H]2Cc3cc(O)cc(c3)-c3ccc4c(c3)c(c(-c3ccncc3)n4C(C)(C)C#N)CC(C)(C)COC(=O)[C@@H]3CCCN(N3)C2=O)C(C)C)C1 [Example A086] |
| 10 to 100 | 1000 to 10000 | 100 to 1000 nM | 100 to 1000 | 100 to 1000 | 100 to 1000 | 10 to 100 | 100 to 1000 | 100 to 1000 | C=CC(=O)N1CC[C@H](C(=O)N(C)[C@H](C(=O)N[C@H]2Cc3cc(O)cc(c3)-c3ccc4c(c3)c(c(-c3ccccc3[C@H](C)OC)n4CC)CC(C)(C)COC(=O)[C@@H]3CCCN(N3)C2=O)C(C)C)C1 [Example A022] |
| 10 to 100 | 1000 to 10000 | 100 to 1000 nM | 100 to 1000 | 100 to 1000 | 100 to 1000 | 10 to 100 | 100 to 1000 | 100 to 1000 | C=CC(=O)N1CC[C@H](C(=O)N(C)[C@H](C(=O)N[C@H]2Cc3cc(O)cc(c3)-c3ccc4c(c3)c(c(-c3cc(F)cnc3COC)n4CC)CC(C)(C)COC(=O)[C@@H]3CCCN(N3)C2=O)C(C)C)C1 [Example A082] |
| 10 to 100 | 1000 to 10000 | 100 to 1000 nM | 100 to 1000 | 100 to 1000 | 100 to 1000 | 10 to 100 | 100 to 1000 | 1000 to 10000 | C=CC(=O)N1CC[C@H](C(=O)N(C)[C@H](C(=O)N[C@H]2Cc3cc(O)cc(c3)-c3ccc4c(c3)c(c(-c3cnccc3C)n4CC)CC(C)(C)COC(=O)[C@@H]3CCCN(N3)C2=O)C(C)C)C1 [Example A077] |
| 10 to 100 | > 10000 | 100 to 1000 nM | 1000 to 10000 | 1000 to 10000 | 1000 to 10000 | 100 to 1000 | 1000 to 10000 | 1000 to 10000 | C=CC(=O)N1CC[C@H](C(=O)N(C)[C@H](C(=O)N[C@H]2Cc3cc(O)cc(c3)-c3ccc4c(c3)c(c(-c3cncc(COC)c3)n4CC)CC(C)(C)COC(=O)[C@@H]3CCCN(N3)C2=O)C(C)C)C1 [Example A083] |
| 10 to 100 | > 10000 | 100 to 1000 nM | 1000 to 10000 | 1000 to 10000 | 1000 to 10000 | 100 to 1000 | 1000 to 10000 | 1000 to 10000 | C=CC(=O)N1CC[C@H](C(=O)N(C)[C@H](C(=O)N[C@H]2Cc3cc(O)cc(c3)-c3ccc4c(c3)c(c(C3=C(COC)CCCC3)n4CC)CC(C)(C)COC(=O)[C@@H]3CCCN(N3)C2=O)C(C)C)C1 [Example A064] |
| 10 to 100 | 100 to 1000 | 10 to 100 nM | 10 to 100 | 100 to 1000 | 100 to 1000 | 10 to 100 | 100 to 1000 | 100 to 1000 | CCn1c(-c2cnccc2COC)c2c3cc(ccc31)-c1cc(O)cc(c1)C[C@H](NC(=O)[C@H](C(C)C)N(C)C(=O)[C@H]1CCN(C(=O)/C=C/CN(C)C)C1)C(=O)N1CCC[C@H](N1)C(=O)OCC(C)(C)C2 [Example A087] |
